Measured values as given in patent US12018267B2, “Plants having increased tolerance to herbicides” (BASF SE, priority 2015, dated 2024).

Tests used:
[1] = system: transgenic Arabidopsis plants with wildtype or mutated cellulose synthase sequences (SEQ ID NO: 1 or 3); assay: 48-well plate growth inhibition of transgenic T2 Arabidopsis, relative tolerance rates versus non-transgenic (Table E2-1); format: in vivo, Arabidopsis thaliana; details: growth inhibition evaluated seven to ten days after seeding
Source text: For transformation of Arabidopsis thaliana, wildtype or mutated cellulose synthase sequences encoding for one of the following protein sequences SEQ ID NO: 1 or 3, are cloned with standard cloning techniques as described in Sambrook et al. (Molecular cloning (2001) Cold Spring Harbor Laboratory Press) in a binary vector containing resistance marker gene cassette (AHAS) and mutated cellulose synthase sequence (marked as GOI) in between ubiquitin promoter (PcUbi) and nopaline synthase terminator (NOS) sequence. Binary plasmids are introduced to Agrobacterium tumefaciens for plant transformation. Arabidopsis thaliana are transformed with wildtype or mutated cellulose synthase sequences by floral dip method as described by McElver and Singh (WO 2008/124495). Transgenic Arabidopsis plants are subjected to TaqMan analysis for analysis of the number of integration loci.
Transgenic Arabidopsis thaliana plants (T2) are assayed for improved tolerance to azine herbicides like e. g. 6-cyclopentyl-N4-(2,3,4,5,6-pentafluorophenyl)-1,3,5-triazine-2,4-diamine in 48-well plates. Therefore, T2 seeds are surface sterilized by stirring for 5 min in ethanol+water (70+30 by volume), rinsing one time with ethanol+water (70+30 by volume) and two times with sterile, deionized water. The seeds are resuspended in 0.1% agar dissolved in water (w/v) Four to five seeds per well are plated on solid nutrient medium consisting of half-strength murashige skoog nutrient solution, pH 5.8 (Murashige and Skoog (1962) Physiologia Plantarum 15: 473-497). Compounds are dissolved in dimethylsulfoxid (DMSO) and added to the medium prior solidification (final DMSO concentration 0.1%). Multi well plates are incubated in a growth chamber at 22° C., 75% relative humidity and 110 μmol Phot*m^−2*s^−1 with 14:10 h light:dark photoperiod. Growth inhibition is evaluated seven to ten days after seeding in comparison to wild type plants. Tolerance factors are calculated based on IC50 values of growth inhibition of transformed versus non-transformed Arabidopsis plants.

[2] = system: wildtype Arabidopsis thaliana; assay: Greenhouse pre-emergent treatment of M3 Arabidopsis seeds, phytotox (injury) rating, wildtype; format: in vivo; details: 21 days after treatment
Method: (§1) Additionally, M3 Arabidopsis seeds are tested for improved tolerance to CESA-inhibiting herbicides in greenhouse studies with azine compounds like e. g. N2-(4-chloro-3,5,6-trifluoro-2-pyridyl)-6-(1-fluorocyclopentyl)-1,3,5-triazine-2,4-diamine (Table E1-1, see also FIG. 3).

[3] = system: At_CESA1_R292H (SEQ ID 1 - Variant R292H) M3 Arabidopsis plants; assay: Greenhouse pre-emergent treatment of M3 Arabidopsis seeds, phytotox (injury) rating, CESA1 R292H variant; format: in vivo, Arabidopsis thaliana; details: 21 days after treatment
Source text: For selection of cellulose biosynthesis inhibitor resistant plants EMS mutagenized seed populations of Arabidopsis thaliana are used. EMS mutagenized seed populations are either bought from Lehle Seeds (1102 South Industrial Blvd. Suite D, Round Rock, Texas USA) or are generated as described elsewhere (Heim D R, et al. (1989) Plant Physiol. 90: 146-150). Causative mutations in CESA wildtype sequences (e.g. SEQ ID NO: 1 or 3) are identified as described by Scheible W R et al. (2001, Proc. Natl. Acad. of Sci. 98: 10079-10084), McCourt et. al. (WO2013/142968) or with the use of next generation sequencing methods as described by Austin R S, et al. (2011) Plant Journal 67: 715-725.
as §1

[4] = Construct AtCesA1_G1031R, SEQ ID 1, variant G1031R
[5] = Construct AtCesA1_R292H, SEQ ID 1, variant R292H
[6] = Construct AtCesA1_V297M, SEQ ID 1, variant V297M
[7] = Construct AtCesA1_wt, SEQ ID 1, no variant
[8] = Construct AtCesA3_wt, SEQ ID 3, no variant
[9] = Construct AtCesA1_L1011A, SEQ ID 1, variant L1011A
[10] = Construct AtCesA3_F1039L, SEQ ID 3, variant F1039L

`Cc1cccc(-n2nc(C(N)=O)nc2-c2ccccc2)c1` was tested, and the “Relative tolerance rate of transgenic Arabidopsis plants as compared to non-transgenic (non-transgenic = 1.0)” value (“Relative tolerance rate … (non-transgenic = 1.0)” below) [1, 4] was 13, the “Relative tolerance rate … (non-transgenic = 1.0)” value [1, 5] was 31 and the “Relative tolerance rate … (non-transgenic = 1.0)” value [1, 6] was 5. The “Relative tolerance rate … (non-transgenic = 1.0)” value [1, 7] was 3 and the “Relative tolerance rate … (non-transgenic = 1.0)” value [1, 8] was 4.
In the case of `NC(=O)c1nc(-c2ccccc2)n(-c2ccc(Cl)c(COCC(F)(F)C(F)(F)F)c2)n1` [1-[4-chloro-3-(2,2,3,3,3-pentafluoropropoxymethyl)phenyl]-5-phenyl-1,2,4-triazole-3-carboxamide, reference compound], the “Relative tolerance rate … (non-transgenic = 1.0)” value [1, 9] is reported as 7, the “Relative tolerance rate … (non-transgenic = 1.0)” value [1, 10] is reported as 3 and the phytotox value ([2]; 7.8 g ai/ha) is reported as 12.5. For the same molecule, the phytotox value ([2]; 31.25 g ai/ha) was 99, the phytotox value ([2]; 125 g ai/ha) was 100 and the phytotox value ([2]; 250 g ai/ha) was 100. For the same molecule, the phytotox value ([3]; At_CESA1_R292H event A, 7.8 g ai/ha) was 7.5, the phytotox value ([3]; At_CESA1_R292H event A, 31.25 g ai/ha) was 80 and the phytotox value ([3]; At_CESA1_R292H event A, 125 g ai/ha) was 100. The phytotox value ([3]; At_CESA1_R292H event A, 250 g ai/ha) was 100, the phytotox value ([3]; At_CESA1_R292H event B, 7.8 g ai/ha) was 25 and the phytotox value ([3]; At_CESA1_R292H event B, 31.25 g ai/ha) was 52.5. For the same molecule, the phytotox value ([3]; At_CESA1_R292H event B, 125 g ai/ha) was 100 and the phytotox value ([3]; At_CESA1_R292H event B, 250 g ai/ha) was 100.
With `Nc1nc(Nc2nc(F)c(F)c(Cl)c2F)nc(C2(F)CCCC2)n1` [N2-(4-chloro-3,5,6-trifluoro-2-pyridyl)-6-(1-fluorocyclopentyl)-1,3,5-triazine-2,4-diamine] the “Relative tolerance rate … (non-transgenic = 1.0)” value [1, 4] was 3, the “Relative tolerance rate … (non-transgenic = 1.0)” value [1, 9] was 1 and the “Relative tolerance rate … (non-transgenic = 1.0)” value [1, 5] was 1. The “Relative tolerance rate … (non-transgenic = 1.0)” value [1, 6] was 1, the “Relative tolerance rate … (non-transgenic = 1.0)” value [1, 7] was 2 and the “Relative tolerance rate … (non-transgenic = 1.0)” value [1, 10] was 1. The “Relative tolerance rate … (non-transgenic = 1.0)” value [1, 8] was 1, the phytotox value ([2]; 0.5 g ai/ha) was 60 and the phytotox value ([2]; 1 g ai/ha) was 65. The phytotox value ([2]; 2 g ai/ha) was 98, the phytotox value ([2]; 4 g ai/ha) was 100 and the phytotox value ([3]; At_CESA1_R292H event A, 0.5 g ai/ha) was 10. It also gave a phytotox value ([3]; At_CESA1_R292H event A, 1 g ai/ha) of 10, a phytotox value ([3]; At_CESA1_R292H event A, 2 g ai/ha) of 45 and a phytotox value ([3]; At_CESA1_R292H event A, 4 g ai/ha) of 94. The phytotox value ([3]; At_CESA1_R292H event B, 0.5 g ai/ha) was 5, the phytotox value ([3]; At_CESA1_R292H event B, 1 g ai/ha) was 0 and the phytotox value ([3]; At_CESA1_R292H event B, 2 g ai/ha) was 17.5. For the same molecule, the phytotox value ([3]; At_CESA1_R292H event B, 4 g ai/ha) was 87.5.
